From ChEMBL document CHEMBL5107980, “Seeking heterocyclic scaffolds as antivirals against dengue virus” (Eur J Med Chem, 2022)
In brackets after ≈: the same amount, converted by molar mass.

Key:
dengue virus type 2 [1] = experiment: Antiviral activity against DENV2 infected in hamster BHK-21 cells assessed as inhibition of virus induced cytopathic effect incubated for 45 mins by plaque formation assay; type: functional, organism-based; conditions: BHK-21, 0.75 h
dengue virus type 3 [2] = experiment: Antiviral activity against DENV3 infected in African green monkey Vero cells assessed as inhibition of virus induced cytopathic effect incubated for 45 mins by focus-formation assay; type: functional, organism-based; conditions: 0.75 h
Aedes aegypti [3] = experiment: Larvicidal activity against Aedes aegypti assessed as mortality rate at 5 ug per mosquito measured after 24 hrs relative to control; type: functional; conditions: dose 5 µg
Aedes aegypti [4] = experiment: Larvicidal activity against Aedes aegypti assessed as lethal dose per mosquito measured for 24 hrs; type: functional
[5] = molecular target: Genome polyprotein (dengue virus type 2) (UniProt P29990); experiment: Inhibition of DENV2 NS2B-NS3 protease at 50 uM using Bz-Nle-Lys-Arg-Arg-AMC as substrate measured after 30 mins by spectrofluorometer analysis relative to control
Genome polyprotein = Genome polyprotein (dengue virus type 2, UniProt P29990); experiment: Inhibition of DENV2 NS2B-NS3 protease using Bz-Nle-Lys-Arg-Arg-AMC as substrate measured after 30 mins by spectrofluorometer analysis
[6] = molecular target: Genome polyprotein (dengue virus type 2) (UniProt P29990); experiment: Inhibition of DENV2 NS2B-NS3 protease at 50 uM using Bz-Nle-Lys-Arg-Arg-AMC as substrate by spectrofluorometer analysis relative to control
Aedes aegypti [7] = experiment: Larvicidal activity against Aedes aegypti assessed as mortality measured upto 48 hrs; type: functional; conditions: for LC50: Aedes aegypti
[8] = Inhibition of DENV-2 NS5 RdRp polymerase expressed in Escherichia coli Rosetta2(DE3) measured after 1 hr by [alpha-32P]UTP-labeled radio-probe based scintillation counter analysis; parameters: species or system dengue virus type 2
dengue virus type 1 [9] = experiment: Antiviral activity against DENV1 infected in hamster BHK-21 cells assessed as inhibition of virus induced cytopathic effect incubated for 45 mins by focus-formation assay; type: functional, organism-based; conditions: BHK-21, 0.75 h
dengue virus type 2 [10] = experiment: Antiviral activity against DENV2 infected in African green monkey Vero cells assessed as inhibition of viral replication measured after 48 hrs by RT-PCR analysis; type: functional, organism-based
[11] = Cytotoxicity against African green monkey Vero cells assessed as cell growth inhibition after 48 hrs by MTT assay; type: toxicity, cell-based; conditions: chlorocebus sabaeus
[12] = Selectivity Index, ratio of CC50 for African green monkey Vero cells to EC50 for antiviral activity against DENV2 infected in African green monkey Vero cells; type: toxicity; conditions: Vero cells (CC50) and DENV2-infected Vero cells (EC50)
Dengue virus = experiment: Antiviral activity against DENV; type: functional, organism-based
dengue virus type 2 [13] = experiment: Antiviral activity against DENV2; type: functional, organism-based
dengue virus type 2 [14] = experiment: Antiviral activity against DENV2 infected in asian tiger mosquito C6/36 cells assessed as inhibition of virus induced cytopathic effect measured after 96 hrs by methylene blue staining based microscopic analysis; type: functional, organism-based; conditions: C6/36, 96 h
[15] = Cytotoxicity against hamster BHK-21 cells assessed as cell growth inhibition after 48 hrs by MTT assay; type: toxicity, cell-based, Mesocricetus auratus
[16] = Selectivity Index, ratio of CC50 for hamster BHK-21 cells to EC50 for antiviral activity against DENV2 infected in asian tiger mosquito C6/36 cells; type: toxicity; conditions: BHK-21 cells (CC50) and DENV2-infected C6/36 cells (EC50)
[17] = Inhibition of DENV1 (US/Hawaii/1944) RdRP expressed in Escherichia coli Rosetta2(DE3) incubated for 180 mins in presence of ATP,GTP,and UTP by scintillation counter analysis; parameters: species or system dengue virus type 1
[18] = Inhibition of DENV2 His6-tagged recombinant NGC RdRP expressed in Escherichia coli Rosetta2(DE3) measured after 180 mins in presence of NTP by scintillation counter analysis; parameters: species or system dengue virus type 2
[19] = Inhibition of DENV3 (MY00-22366) RdRP expressed in Escherichia coli Rosetta2(DE3) incubated for 180 mins in presence of ATP,GTP,and UTP by scintillation counter analysis; parameters: species or system dengue virus type 3
[20] = Inhibition of DENV4 (MY01-22713) RdRP expressed in Escherichia coli Rosetta2(DE3) incubated for 180 mins in presence of ATP,GTP,and UTP by scintillation counter analysis; parameters: species or system dengue virus type 4
dengue virus type 1 [21] = experiment: Antiviral activity against DENV1 infected in hamster BHK-21 cells assessed as inhibition of virus induced cytopathic effect by viral tox-glo assay; type: functional, organism-based
dengue virus type 2 [22] = experiment: Antiviral activity against DENV2 infected in hamster BHK-21 cells assessed as inhibition of virus induced cytopathic effect by viral tox-glo assay; type: functional, organism-based
dengue virus type 3 [23] = experiment: Antiviral activity against DENV3 infected in hamster BHK-21 cells assessed as inhibition of virus induced cytopathic effect by viral tox-glo assay; type: functional, organism-based
dengue virus type 4 [24] = experiment: Antiviral activity against DENV4 infected in hamster BHK-21 cells assessed as inhibition of virus induced cytopathic effect by viral tox-glo assay; type: functional, organism-based
dengue virus type 4 [25] = experiment: Antiviral activity against DENV4 infected in hamster BHK-21 cells assessed as inhibition of virus induced cytopathic effect incubated for 45 mins by focus-formation assay; type: functional, organism-based; conditions: BHK-21, 0.75 h

For `FC(F)(F)Oc1ccc(Nc2ccnc(Nc3ccccc3OC(F)(F)F)n2)cc1`, the IC50 (dengue virus type 2 [1]) was 5 µM.
With `FC(F)(F)Oc1cccc(Nc2ccnc(Nc3cccc(OC(F)(F)F)c3)n2)c1` the IC50 (dengue virus type 3 [2]) was 5 µM.
Compound `CS(=O)(=O)N1CCN(c2nnc(-c3ccc(Cl)cc3Cl)o2)C1=O` has an Activity (Aedes aegypti [3]) of 86.7% and an LD50 (Aedes aegypti [4]) of 2.39 µg.
With `Cc1ccc(S(=O)(=O)Nc2ccc(-c3nnc(SCc4cccc(C(F)(F)F)c4)o3)cc2)cc1` the inhibition [5] was 80.4% and the IC50 (Genome polyprotein) was 23.9 µM.
`Cc1cc([N+](=O)[O-])ccc1-n1sc2ccccc2c1=O` gave an inhibition [6] of 92%.
For `Cc1[nH]c2ccc(Br)cc2c1C`, the LC90 (Aedes aegypti [7]) was 14.74 µM and the LC50 (Aedes aegypti [7]) was 10.6 µM.
For `O=C1N/C(=N\c2nnc(-c3ccccc3F)s2)S/C1=C\c1cccc(F)c1`, the IC50 [8] was 7.2 µM.
In the case of `CS(=O)(=O)N1CCN(c2nnc(-c3ccccc3)o2)C1=O`, the Activity (Aedes aegypti [3]) is reported as 73.3%.
In the case of `O=c1c2ccccc2sn1-c1ccc(Br)cc1`, the inhibition [6] is reported as 80%.
In the case of `O=c1c2ccccc2sn1-c1ccccc1[N+](=O)[O-]`, the inhibition [6] is reported as 72%.
`O=c1c2ccccc2sn1-c1ccccc1Cl` gave an inhibition [6] of 94%.
Work on `FC(F)(F)Oc1ccc(Nc2ccnc(Nc3cccc(OC(F)(F)F)c3)n2)cc1` yielded an IC50 (dengue virus type 1 [9]) of 4 µM.
`CC(C)CC(=O)c1c(O)c2c(c3c(-c4ccccc4)cc(=O)oc13)OC(C)(C)C=C2` [ISOMAMMEIGIN] gave an EC50 (dengue virus type 2 [10]) of 9.6 µg/mL (≈ 23.7 µM), a CC50 at 48 h [11] of 3150 µg/mL (≈ 7790 µM) and a selectivity ratio [12] of 328.
Compound `CS(=O)(=O)N1CCN(c2nnc(-c3ccc(Br)cc3)o2)C1=O` has an Activity (Aedes aegypti [3]) of 86.7% and an LD50 (Aedes aegypti [4]) of 3.55 µg.
Work on `O=C1N/C(=N\c2nnc(-c3cccnc3)s2)S/C1=C\c1cccc(F)c1` yielded an IC50 [8] of 5.5 µM.
`Cc1[nH]c2c(C(=O)O)cccc2c1C` gave an LC90 (Aedes aegypti [7]) greater than 528.51 µM and an LC50 (Aedes aegypti [7]) greater than 854 µM.
Work on `O=C1N=Cc2ccc(Nc3ccnc4ccc(Br)cc34)cc21` yielded an EC50 (Dengue virus) of 0.64 µM and an EC90 (Dengue virus) of 1.5 µM.
`CCCc1cc(=O)oc2c(C(=O)CC(C)C)c(O)c(CC=C(C)C)c(O)c12` showed an EC50 (dengue virus type 2 [10]) of 2.6 µg/mL (≈ 6.98 µM), a CC50 at 48 h [11] of 550 µg/mL (≈ 1480 µM) and a selectivity ratio [12] of 212.
For `CC(C)(C)[Si](C)(C)Oc1ccc(C2N(Nc3ccc([N+](=O)[O-])cc3)C(=O)[C@@H]3Cc4ccccc4N23)cc1` (stereo not given in full), the EC50 (dengue virus type 2 [13]) was 4.79 µM.
Work on `O=C1c2ccccc2C(=O)N1CCCCSc1nnc(-c2ccc(NS(=O)(=O)c3ccc(C(F)(F)F)cc3)cc2)o1` yielded an inhibition [5] of 77.6% and an IC50 (Genome polyprotein) of 15.1 µM.
For `Cc1cc(OC(F)(F)F)ccc1Nc1ccnc(Nc2ccccc2OC(F)(F)F)n1`, the IC50 (dengue virus type 2 [1]) was 5 µM.
In the case of `FC(F)(F)Oc1cccc(Nc2nccc(Nc3ccc(C(F)(F)F)cc3)n2)c1`, the IC50 (dengue virus type 2 [1]) is reported as 5 µM.
For `CNc1cccc(Nc2ccnc3ccc(Br)cc23)c1`, the EC50 (Dengue virus) was 0.24 µM.
`Cc1ccc(-c2nc3nc4c(c(N5CCN(Cc6ccc7c(c6)OCO7)CC5)n3n2)CCC4)cc1` showed an EC50 (dengue virus type 2 [14]) of 4.5 µM, a CC50 at 48 h [15] of 66 µM and a selectivity ratio [16] of 14.7.
For `O=c1c2ccccc2sn1-c1ccccc1O`, the inhibition [6] was 89%.
Compound `Cc1ccc(S(=O)(=O)Nc2ccc(-c3nnc(SCc4ccccc4C(F)(F)F)o3)cc2)cc1` has an inhibition [5] of 80.8% and an IC50 (Genome polyprotein) of 24 µM.
With `O=C1N/C(=N\c2nnc(-c3ccccc3Cl)s2)S/C1=C\c1cccc(F)c1` the IC50 [8] was 2.1 µM.
Compound `CS(=O)(=O)N1CCN(c2nnc(-c3ccc(F)cc3)o2)C1=O` has an Activity (Aedes aegypti [3]) of 70%.
`O=C(NO)c1ncc(CS(=O)(=O)c2ccccc2)c(CO)c1O` gave an IC50 [17] of 5.7 µM, an IC50 [18] of 6 µM and an IC50 [19] of 6.7 µM. The IC50 [20] was 5 µM, the EC50 (dengue virus type 1 [21]) was 2.7 µM and the EC50 (dengue virus type 2 [22]) was 2.8 µM. It also gave an EC50 (dengue virus type 3 [23]) of 2.7 µM and an EC50 (dengue virus type 4 [24]) of 2.2 µM.
`O=C1N/C(=N\c2nnc(-c3cccc(F)c3)s2)S/C1=C\c1c(Cl)cccc1Cl` gave an IC50 [8] of 5.8 µM.
In the case of `Fc1cc2cn[nH]c2cc1Nc1ccnc2ccc(Br)cc12`, the EC50 (Dengue virus) is reported as 0.69 µM and the EC90 (Dengue virus) is reported as 4 µM.
With `O=c1c2ccccc2sn1-c1c(Cl)cccc1Cl` the inhibition [6] was 94%.
`COc1cccc(Nc2ccnc3ccc(C(F)(F)F)cc23)c1` gave an EC50 (Dengue virus) of 0.82 µM.
For `COc1ccc([C@@H]2N(Nc3ccc([N+](=O)[O-])cc3)C(=O)[C@@H]3Cc4ccccc4N23)cc1OC`, the EC50 (dengue virus type 2 [13]) was 9.35 µM.
Compound `Cc1ccc(S(=O)(=O)Nc2ccc(-c3nnc(SCc4ccc(C(F)(F)F)cc4)o3)cc2)cc1` has an inhibition [5] of 83.9% and an IC50 (Genome polyprotein) of 25.2 µM.
Compound `O=C1N/C(=N\c2nnc(-c3cccc(F)c3)s2)S/C1=C\c1cccc(F)c1` has an IC50 [8] of 2.3 µM.
For `Oc1cccc(Nc2ccnc3ccc(Br)cc23)c1`, the EC50 (Dengue virus) was 0.63 µM.
For `FC(F)(F)Oc1ccccc1Nc1nccc(Nc2ccc(C(F)(F)F)cc2)n1`, the IC50 (dengue virus type 4 [25]) was 5 µM.
`O=C1c2ccccc2C(=O)N1CCCSc1nnc(-c2ccc(NS(=O)(=O)c3ccc(C(F)(F)F)cc3)cc2)o1` showed an inhibition [5] of 99.9% and an IC50 (Genome polyprotein) of 13.9 µM.
`OCCN1CCN(c2nccc(Nc3ccc(-c4ccccc4)cc3)n2)CC1` gave an LC90 (Aedes aegypti [7]) of 30.13 µM and an LC50 (Aedes aegypti [7]) of 19.9 µM.
